The values below come from paper PMC8537953 (Viruses, 2021).

The subject of this experiment is SARS-CoV-2. The class given is cell-based.

Regarding `CC(N)C12CC3CC(CC(C3)C1)C2` (stereo not shown) [Rimantadine, rimantadine], the “% of culture cells infected” value is no less than 80%.
